Source: patent US20200207734A1, “HETEROCYCLIC COMPOUND AND USE THEREOF” (Takeda Pharmaceutical Company Limited, priority 2017, published 2020)

The compounds below were run against T1, human orexin type 2 receptor (Homo sapiens, UniProt O43614) (assay: Measurement of orexin type 2 receptor agonist activity (calcium fluorescence, CHO cells expressing hOX2R)). Details: test compound 3 μM; CHO cells expressing human OX2 receptor; DMSO = 0%, orexin A (human) = 100%.
T1 construct: human orexin type 2 receptor cDNA was inserted into pcDNA3.1(+) plasmid vector (Invitrogen); expressed in transfected cells
T1 sequence (O43614 1-444): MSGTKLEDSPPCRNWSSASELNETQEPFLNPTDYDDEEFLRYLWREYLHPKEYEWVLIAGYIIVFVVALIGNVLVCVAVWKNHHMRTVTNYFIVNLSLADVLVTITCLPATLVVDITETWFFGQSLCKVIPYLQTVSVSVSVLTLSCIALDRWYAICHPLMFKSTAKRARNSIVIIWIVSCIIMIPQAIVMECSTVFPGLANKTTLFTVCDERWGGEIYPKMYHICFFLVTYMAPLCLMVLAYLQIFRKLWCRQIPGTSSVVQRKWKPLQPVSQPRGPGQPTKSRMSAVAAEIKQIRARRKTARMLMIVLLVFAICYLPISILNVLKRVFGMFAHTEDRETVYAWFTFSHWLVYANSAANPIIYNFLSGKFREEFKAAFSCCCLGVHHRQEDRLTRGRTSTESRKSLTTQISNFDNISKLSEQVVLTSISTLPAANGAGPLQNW
Assay type: cell-based
Source text: To obtain a cell clone stably expressing human orexin type 2 receptor, human orexin type 2 receptor cDNA was inserted into pcDNA3.1(+) plasmid vector (Invitrogen), and a plasmid DNA for expression of human orexin type 2 receptor (pcDNA3.1(+)/hOX2R) was cloned. The plasmid DNA was introduced into CHO-dhfr cell by an electroporation method, and human orexin type 2 receptor expressing clone cells were obtained by limiting dilution method by using G418 drug resistance as a selection marker.
CHO cells forcibly expressing human OX2 receptor were seeded in each well of 384 well black transparent bottom plate (BD Falcon) at 7,500 cells/well, and cultured for one day in a 5% CO2 incubator at 37° C. After removal of the medium in the cell plate, assay buffer A containing a calcium indicator (HBSS (Thermo Fisher Scientific), 20 mM HEPES (Thermo Fisher Scientific), 0.1% BSA (Wako Pure Chemical Industries, Ltd. or Sigma-Aldrich), 2.5 μg/mL Fluo-4 AM (DOJINDO Chemical), 0.08% Pluronic F127 (DOJINDO Chemical), 1.25 mM probenecid (DOJINDO Chemical)) was added at 30 μL/well. The plate was stood for 30 min in a 5% CO2 incubator at 37° C., and further stood at room temperature for 30 min. A test compound prepared by diluting with assay buffer B (HBSS, 20 mM HEPES, 0.1% BSA) was added at 10 μL/well, and the fluorescence value was measured by FDSSμCELL (Hamamatsu Photonics K.K.) every one sec for 1 min, and thereafter every two sec for 1 min 40 sec. The activity (%) of the test compound was calculated assuming that variation in the fluorescence value when DMSO was added instead of the test compound was 0%, and variation in the fluorescence value when orexin A (human) (PEPTIDE INSTITUTE, INC.) was added at the final concentration of 10 nM was 100%.
For `CC(C)OC(=O)N1CCC[C@H](NS(=O)(=O)C2CC2)[C@@H]1Cc1cccc(-c2ccccc2)n1` (relative stereo) [Example 178, isopropyl cis-3-((cyclopropylsulfonyl)amino)-2-((6-phenylpyridin-2-yl)methyl)piperidine-1-carboxylate], the “OX2R agonist activity (3 μM, %)” value was 99%. `CC(C)OC(=O)N1CCC[C@H](NS(=O)(=O)CCl)[C@@H]1Cc1cccc(-c2ccccc2)n1` (relative stereo) [Example 181, isopropyl cis-3-(((chloromethyl)sulfonyl)amino)-2-((6-phenylpyridin-2-yl)methyl)piperidine-1-carboxylate] was tested, and the “OX2R agonist activity (3 μM, %)” value was 100%. `CC(C)OC(=O)N1CCC[C@H](NS(=O)(=O)N(C)C)[C@@H]1Cc1cccc(-c2ccccc2)n1` (relative stereo) [Example 185, isopropyl cis-3-((dimethylsulfamoyl)amino)-2-((6-phenylpyridin-2-yl)methyl)piperidine-1-carboxylate] was tested, and the “OX2R agonist activity (3 μM, %)” value was 99%. For `C=C(C)c1cccc(C[C@H]2[C@@H](NS(=O)(=O)C3CC3)CCCN2C(=O)OC(C)C)n1` (relative stereo) [Example 191, isopropyl cis-3-((cyclopropylsulfonyl)amino)-2-((6-(prop-1-en-2-yl)pyridin-2-yl)methyl)piperidine-1-carboxylate], the “OX2R agonist activity (3 μM, %)” value was 79%. `CN(C)C(=O)N1CCC[C@H](NS(C)(=O)=O)[C@@H]1Cc1cccc(-c2ccccc2)c1` (relative stereo) [Example 204, cis-2-(biphenyl-3-ylmethyl)-N,N-dimethyl-3-((methylsulfonyl)amino)piperidine-1-carboxamide] was tested, and the “OX2R agonist activity (3 μM, %)” value was 95%. In the case of `CS(=O)(=O)N[C@H]1CCN(C(=O)C2CC2)[C@H]1Cc1cccc(-c2ccccc2)c1` (relative stereo) [Example 206, N-(cis-2-(biphenyl-3-ylmethyl)-1-(cyclopropylcarbonyl)pyrrolidin-3-yl)methanesulfonamide], the “OX2R agonist activity (3 μM, %)” value is reported as 94%. `CC(C)C(=O)N1CC[C@H](NS(C)(=O)=O)[C@@H]1Cc1cccc(-c2ccccc2)c1` (relative stereo) [Example 209, N-(cis-2-(biphenyl-3-ylmethyl)-1-isobutyrylpyrrolidin-3-yl)methanesulfonamide] was tested, and the “OX2R agonist activity (3 μM, %)” value was 106%. For `CC(C)OC(=O)N1CCC[C@H](NS(C)(=O)=O)[C@@H]1CC1CCCN(c2ccccc2)C1` (relative stereo) [Example 214, isopropyl cis-3-((methylsulfonyl)amino)-2-((1-phenylpiperidin-3-yl)methyl)piperidine-1-carboxylate], the “OX2R agonist activity (3 μM, %)” value was 70%. With `CC(C)(C)C(=O)N1CC[C@H](NS(C)(=O)=O)[C@@H]1Cc1cccc(-c2ccccc2)c1` (relative stereo) [Example 227, N-(cis-2-(biphenyl-3-ylmethyl)-1-(2,2-dimethylpropanoyl)pyrrolidin-3-yl)methanesulfonamide] the “OX2R agonist activity (3 μM, %)” value was 99%. `CS(=O)(=O)N[C@H]1CCN(C(=O)C2CCC2)[C@H]1Cc1csc(-c2cccc(F)c2)n1` (relative stereo) [Example 254, N-(cis-1-(cyclobutylcarbonyl)-2-((2-(3-fluorophenyl)-1,3-thiazol-4-yl)methyl)pyrrolidin-3-yl)methanesulfonamide] was tested, and the “OX2R agonist activity (3 μM, %)” value was 101%. With `CS(=O)(=O)N[C@H]1CCN(C(=O)C2CCC2)[C@H]1Cc1csc(-c2ccccc2F)n1` (relative stereo) [Example 255, N-(cis-1-(cyclobutylcarbonyl)-2-((2-(2-fluorophenyl)-1,3-thiazol-4-yl)methyl)pyrrolidin-3-yl)methanesulfonamide] the “OX2R agonist activity (3 μM, %)” value was 101%. With `CS(=O)(=O)N[C@H]1CCN(C(=O)C2CCC2)[C@H]1Cc1csc(-c2cccc(F)c2F)n1` (relative stereo) [Example 256, N-(cis-1-(cyclobutylcarbonyl)-2-((2-(2,3-difluorophenyl)-1,3-thiazol-4-yl)methyl)pyrrolidin-3-yl)methanesulfonamide] the “OX2R agonist activity (3 μM, %)” value was 97%. `CS(=O)(=O)N[C@H]1CCN(C(=O)C2CCC2)[C@H]1Cc1csc(-c2cc(F)cc(F)c2)n1` (relative stereo) [Example 258, N-(cis-1-(cyclobutylcarbonyl)-2-((2-(3,5-difluorophenyl)-1,3-thiazol-4-yl)methyl)pyrrolidin-3-yl)methanesulfonamide] was tested, and the “OX2R agonist activity (3 μM, %)” value was 95%. With `O=C(C1CCC1)N1CC[C@H](NS(=O)(=O)C2CC2)[C@@H]1Cc1csc(-c2ccccc2)n1` (relative stereo) [Example 259, N-(cis-1-(cyclobutylcarbonyl)-2-((2-phenyl-1,3-thiazol-4-yl)methyl)pyrrolidin-3-yl)cyclopropanesulfonamide] the “OX2R agonist activity (3 μM, %)” value was 95%. In the case of `O=C(C1CCC1)N1CC[C@H](NS(=O)(=O)CF)[C@@H]1Cc1csc(-c2ccccc2)n1` (relative stereo) [Example 269, N-(cis-1-(cyclobutylcarbonyl)-2-((2-phenyl-1,3-thiazol-4-yl)methyl)pyrrolidin-3-yl)-1-fluoromethanesulfonamide], the “OX2R agonist activity (3 μM, %)” value is reported as 111%. In the case of `CC(C)C(=O)N1CC[C@H](NS(C)(=O)=O)[C@@H]1Cc1cccc(-c2ccccc2)c1F` (relative stereo) [Example 293, N-(cis-2-((2-fluorobiphenyl-3-yl)methyl)-1-isobutyrylpyrrolidin-3-yl)methanesulfonamide], the “OX2R agonist activity (3 μM, %)” value is reported as 102%. For `CC(C)C(=O)N1CC[C@H](NS(C)(=O)=O)[C@@H]1Cc1cccc(-c2cccc(F)c2)c1F` (relative stereo) [Example 294, N-(cis-2-((2,3′-difluorobiphenyl-3-yl)methyl)-1-isobutyrylpyrrolidin-3-yl)methanesulfonamide], the “OX2R agonist activity (3 μM, %)” value was 104%. For `CS(=O)(=O)N[C@H]1CCN(C(=O)C2CCC2)[C@H]1Cc1cc(F)cc(-c2ccccc2)c1` (relative stereo) [Example 299, N-(cis-1-(cyclobutylcarbonyl)-2-((5-fluorobiphenyl-3-yl)methyl)pyrrolidin-3-yl)methanesulfonamide], the “OX2R agonist activity (3 μM, %)” value was 100%. With `CS(=O)(=O)N[C@H]1CCN(C(=O)C2CCC2)[C@H]1Cc1cc(F)cc(-c2cccc(F)c2)c1` (relative stereo) [Example 300, N-(cis-1-(cyclobutylcarbonyl)-2-((3′,5-difluorobiphenyl-3-yl)methyl)pyrrolidin-3-yl)methanesulfonamide] the “OX2R agonist activity (3 μM, %)” value was 99%. With `CS(=O)(=O)N[C@H]1CCN(C(=O)C2CCC2)[C@H]1Cc1ccc(F)c(-c2ccccc2)c1` (relative stereo) [Example 303, N-(cis-1-(cyclobutylcarbonyl)-2-((6-fluorobiphenyl-3-yl)methyl)pyrrolidin-3-yl)methanesulfonamide] the “OX2R agonist activity (3 μM, %)” value was 95%. `CS(=O)(=O)N[C@H]1CCN(C(=O)C2CCC2)[C@H]1Cc1ccc(F)c(-c2cccc(F)c2)c1` (relative stereo) [Example 304, N-(cis-1-(cyclobutylcarbonyl)-2-((3′,6-difluorobiphenyl-3-yl)methyl)pyrrolidin-3-yl)methanesulfonamide] was tested, and the “OX2R agonist activity (3 μM, %)” value was 94%. In the case of `CCS(=O)(=O)N[C@H]1CCN(C(=O)C2CCC2)[C@H]1Cc1csc(-c2cc(F)cc(F)c2)n1` (relative stereo) [Example 315, N-(cis-1-(cyclobutylcarbonyl)-2-((2-(3,5-difluorophenyl)-1,3-thiazol-4-yl)methyl)pyrrolidin-3-yl)ethanesulfonamide], the “OX2R agonist activity (3 μM, %)” value is reported as 105%. In the case of `CCS(=O)(=O)N[C@H]1CCN(C(=O)C2(C)CCC2)[C@H]1Cc1csc(-c2cc(F)cc(F)c2)n1` (relative stereo) [Example 316, N-(cis-2-((2-(3,5-difluorophenyl)-1,3-thiazol-4-yl)methyl)-1-((1-methylcyclobutyl)carbonyl)pyrrolidin-3-yl)ethanesulfonamide], the “OX2R agonist activity (3 μM, %)” value is reported as 104%. With `CCS(=O)(=O)N[C@H]1CCN(C(=O)C2(O)CCC2)[C@H]1Cc1csc(-c2cc(F)cc(F)c2)n1` (relative stereo) [Example 317, N-(cis-2-((2-(3,5-difluorophenyl)-1,3-thiazol-4-yl)methyl)-1-((1-hydroxycyclobutyl)carbonyl)pyrrolidin-3-yl)ethanesulfonamide] the “OX2R agonist activity (3 μM, %)” value was 103%.
